Results: ChEMBL document CHEMBL1141546, “Diamine derivatives containing imidazolidinylidene propanedinitrile as a new class of histamine H3 receptor antagonists. Part I” (Bioorg Med Chem Lett, 2008)
pIC50, pKi: −log10 of the molar value.

Key:
Histamine H3 receptor [1] = biological target: T1, Histamine H3 receptor (Homo sapiens, UniProt Q9Y5N1); experiment: Displacement of [3H]N-alpha-methylhistamine from human cloned histamine H3 receptor expressed in monkey COS7 cells at 0.1 uM; assay type: cell-based; conditions: COS-7
[2] = biological target: Histamine H3 receptor (Rattus norvegicus) (UniProt Q9QYN8); experiment: Displacement of [3H]N-alpha-methylhistamine from histamine H3 receptor in rat striatal membrane at 0.1 uM; assay type: cell membranes; conditions: Striatum
Histamine H3 receptor [3] = biological target: T1, Histamine H3 receptor; experiment: Displacement of [3H]N-alpha-methylhistamine from human cloned histamine H3 receptor expressed in monkey COS7 cells at 1 uM; assay type: cell-based; conditions: COS-7
[4] = biological target: Histamine H3 receptor (Rattus norvegicus) (UniProt Q9QYN8); experiment: Displacement of [3H]N-alpha-methylhistamine from histamine H3 receptor in rat striatal membrane at 1 uM; assay type: cell membranes; conditions: Striatum
Histamine H3 receptor [5] = biological target: T2, Histamine H3 receptor (Rattus norvegicus, UniProt Q9QYN8); experiment: Displacement of [3H]N-alpha-methylhistamine from histamine H3 receptor in rat striatal membrane; assay type: cell membranes, Striatum
Histamine H3 receptor [6] = biological target: T1, Histamine H3 receptor; experiment: Displacement of [3H]N-alpha-methylhistamine from human cloned histamine H3 receptor expressed in monkey COS7 cells; assay type: cell-based, COS-7
[7] = biological target: Histamine H1 receptor (Homo sapiens) (UniProt P35367); experiment: Displacement of [3H]pyrilamine from human H1 receptor expressed in monkey COS7 cells at 1 uM; assay type: cell-based; conditions: COS-7
[8] = biological target: Histamine H2 receptor (Homo sapiens) (UniProt P25021); experiment: Displacement of [3H]tiotidine from human H2 receptor expressed in monkey COS7 cells at 10 uM; assay type: cell-based; conditions: COS-7
Histamine H3 receptor [9] = biological target: T2, Histamine H3 receptor; experiment: Antagonist activity at histamine H3 receptor in rat forebrain assessed as inhibition of [3H]histamine release from synaptosomes; assay type: functional, subcellular, Brain
[10] = biological target: Histamine H1 receptor (Homo sapiens) (UniProt P35367); experiment: Displacement of [3H]pyrilamine from human H1 receptor expressed in monkey COS7 cells at 10 uM; assay type: cell-based; conditions: COS-7
[11] = biological target: Histamine H4 receptor (Homo sapiens) (UniProt Q9H3N8); experiment: Displacement of [3H]histamine from human H4 receptor expressed in monkey COS7 cells at 10 uM; assay type: cell-based; conditions: COS-7
[12] = biological target: Histamine H2 receptor (Homo sapiens) (UniProt P25021); experiment: Displacement of [3H]tiotidine from human H2 receptor expressed in monkey COS7 cells at 1 uM; assay type: cell-based; conditions: COS-7
[13] = biological target: Histamine H4 receptor (Homo sapiens) (UniProt Q9H3N8); experiment: Displacement of [3H]histamine from human H4 receptor expressed in monkey COS7 cells at 1 uM; assay type: cell-based; conditions: COS-7

Histamine H2 receptor (Homo sapiens), sequence (P25021 whole entry): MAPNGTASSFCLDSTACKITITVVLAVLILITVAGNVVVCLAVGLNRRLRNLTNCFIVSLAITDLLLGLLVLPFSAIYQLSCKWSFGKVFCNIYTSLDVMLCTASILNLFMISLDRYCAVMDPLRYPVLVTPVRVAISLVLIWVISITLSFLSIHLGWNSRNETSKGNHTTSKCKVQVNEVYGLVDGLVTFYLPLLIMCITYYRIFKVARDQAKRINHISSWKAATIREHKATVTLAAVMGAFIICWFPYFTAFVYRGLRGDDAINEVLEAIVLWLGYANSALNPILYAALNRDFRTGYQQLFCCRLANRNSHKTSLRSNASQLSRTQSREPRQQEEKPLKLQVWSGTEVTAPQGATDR
Histamine H1 receptor (Homo sapiens), sequence (P35367 whole entry): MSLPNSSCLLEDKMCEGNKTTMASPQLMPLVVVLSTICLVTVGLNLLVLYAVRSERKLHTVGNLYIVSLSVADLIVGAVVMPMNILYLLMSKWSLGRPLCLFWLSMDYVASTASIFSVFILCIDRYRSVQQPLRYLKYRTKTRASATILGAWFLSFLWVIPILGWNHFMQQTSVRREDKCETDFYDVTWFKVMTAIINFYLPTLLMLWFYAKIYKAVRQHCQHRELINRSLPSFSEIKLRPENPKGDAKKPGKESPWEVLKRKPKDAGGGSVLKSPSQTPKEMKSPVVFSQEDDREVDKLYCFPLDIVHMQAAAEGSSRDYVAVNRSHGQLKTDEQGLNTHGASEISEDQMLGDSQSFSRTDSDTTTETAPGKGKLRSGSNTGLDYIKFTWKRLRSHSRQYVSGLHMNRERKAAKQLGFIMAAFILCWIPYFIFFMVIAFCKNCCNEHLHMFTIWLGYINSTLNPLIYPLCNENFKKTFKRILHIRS
T2 sequence (Q9QYN8 whole entry): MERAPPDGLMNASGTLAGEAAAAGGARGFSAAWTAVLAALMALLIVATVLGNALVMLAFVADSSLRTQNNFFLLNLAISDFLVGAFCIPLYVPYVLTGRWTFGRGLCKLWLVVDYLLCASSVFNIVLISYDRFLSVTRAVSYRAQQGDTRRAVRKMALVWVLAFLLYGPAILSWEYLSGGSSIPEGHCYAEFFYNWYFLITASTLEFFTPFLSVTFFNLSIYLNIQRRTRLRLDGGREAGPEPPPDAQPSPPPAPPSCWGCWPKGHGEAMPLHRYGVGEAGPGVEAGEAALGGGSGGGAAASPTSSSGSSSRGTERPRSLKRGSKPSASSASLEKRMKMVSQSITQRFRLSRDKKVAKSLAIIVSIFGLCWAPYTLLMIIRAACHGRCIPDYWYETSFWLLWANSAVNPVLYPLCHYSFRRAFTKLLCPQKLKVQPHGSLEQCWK
Histamine H3 receptor (Rattus norvegicus), sequence (Q9QYN8 whole entry): as above
Histamine H4 receptor (Homo sapiens), sequence (Q9H3N8 whole entry): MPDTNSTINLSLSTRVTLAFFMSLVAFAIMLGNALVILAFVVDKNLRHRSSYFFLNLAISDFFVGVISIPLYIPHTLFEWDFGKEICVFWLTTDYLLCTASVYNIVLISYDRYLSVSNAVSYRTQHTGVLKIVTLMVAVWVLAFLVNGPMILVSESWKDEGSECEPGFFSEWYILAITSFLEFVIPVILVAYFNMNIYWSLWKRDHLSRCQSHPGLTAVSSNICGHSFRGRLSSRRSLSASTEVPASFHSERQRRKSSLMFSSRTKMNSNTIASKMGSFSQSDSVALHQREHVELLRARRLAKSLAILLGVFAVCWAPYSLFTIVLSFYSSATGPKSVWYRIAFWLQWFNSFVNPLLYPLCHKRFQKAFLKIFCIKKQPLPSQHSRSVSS
T1 sequence (Q9Y5N1 whole entry): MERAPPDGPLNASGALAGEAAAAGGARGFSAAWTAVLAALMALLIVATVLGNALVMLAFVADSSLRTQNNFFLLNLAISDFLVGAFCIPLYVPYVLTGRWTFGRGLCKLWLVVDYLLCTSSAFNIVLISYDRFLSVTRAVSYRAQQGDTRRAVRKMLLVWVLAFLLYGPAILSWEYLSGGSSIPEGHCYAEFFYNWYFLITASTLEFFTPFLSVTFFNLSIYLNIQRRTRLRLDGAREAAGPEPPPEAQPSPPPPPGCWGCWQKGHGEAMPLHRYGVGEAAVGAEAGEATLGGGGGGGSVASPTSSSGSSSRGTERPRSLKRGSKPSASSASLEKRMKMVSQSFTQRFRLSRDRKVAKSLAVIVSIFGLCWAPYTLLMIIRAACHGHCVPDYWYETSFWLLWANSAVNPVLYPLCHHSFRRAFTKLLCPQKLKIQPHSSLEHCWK

SMILES	inhibition (Histamine H3 receptor [1]) [%]	inhibition [2] [%]	inhibition (Histamine H3 receptor [3]) [%]	inhibition [4] [%]	pKi (Histamine H3 receptor [5])	pKi (Histamine H3 receptor [6])	inhibition [7] [%]	inhibition [8] [%]	pIC50 (Histamine H3 receptor [9])	inhibition [10] [%]	inhibition [11] [%]	inhibition [12] [%]	inhibition [13] [%]
N#CC(C#N)=C1N(CCCCN2CCCCC2)CCN1CCCCN1CCCCC1	43	51	68	85									
N#CC(C#N)=C1N(CCCCN2CCCCC2)CCN1CCN1CCCCC1					8.07	7.80							
c1cc(OCCCN2CCCCC2)ccc1CN1CCCCC1 [JNJ-5207852]					8.90								
CC1CCCN1CCN1CCN(CCN2CCCC2C)C1=C(C#N)C#N (racemic)					9.17	9.48	10	0	8.31	21	-7	1	-8
N#CC(C#N)=C1N(CCCN2CCCCC2)CCN1CCCN1CCCCC1					8.59	8.62	3	-4	7.55	21	-1	-5	11
C[C@@H]1CCCN1CCN1CCN(CCN2CCC[C@@H]2C)C1=C(C#N)C#N					9.11	9.33	-3	-9		7	-3		6
N#CC(C#N)=C1N(CCN2CCCCC2)CCN1CCN1CCOCC1	37	44	69	82									
N#CC(C#N)=C1N(CCCCN2CCCCC2)CCN1CCCN1CCCCC1	48	65	74	88									
N#CC(C#N)=C1N(CCCN2CCCCC2)CCN1Cc1cccc2ccccc12					6.16	7.44							
C[C@@H]1CCCN1CCN1CCN(CCN2CCC[C@H]2C)C1=C(C#N)C#N					8.96	8.89	0	-1		-4	8	-7	9
CCN(CCCN(C)C)CCN1CCN(Cc2cccc3ccccc23)C1=C(C#N)C#N					7.12	7.08							
N#CC(C#N)=C1N(CCN2CCCCC2)CCN1CCN1CCC(O)C1 (racemic)	49	57	70	86									
CN1CCN(CCN2CCN(CCN3CCCCC3)C2=C(C#N)C#N)CC1	37	43	74	82									
N#CC(C#N)=C1N(CCN2CCCCC2)CCN1CCN1CCCCC1					7.26	7.62							
N#CC(C#N)=C1N(CCCN2CCCCC2)CCN1CCN1CCCCC1					8.20	8.18							
CC1CCCN1CCN1CCN(CCN2CCCCC2)C1=C(C#N)C#N (racemic)					9.16	9.42	5	-4		9	6	-8	2
C[C@H]1CCCN1CCN1CCN(CCN2CCC[C@@H]2C)C1=C(C#N)C#N					9.32	9.47	8	-2	8.72	14	0	2	9
